Results: ChEMBL document CHEMBL4715724, “Novel 5-substituted-2-anilinoquinolines with 3-(morpholino or 4-methylpiperazin-1-yl)propoxy moiety as broad spectrum antiproliferative agents: Synthesis, cell based assays and kinase screening” (Bioorg Med Chem Lett, 2016)

How the values were obtained:
CCRF-CEM = assay: cells; type: functional; settings: Homo sapiens, time 48 hrs
Description: Growth inhibition of human CCRF-CEM cells incubated for 48 hrs by sulforhodamine B assay

NCI-H460 = assay: cells; type: functional; settings: Homo sapiens, time 48 hrs
Description: Growth inhibition of human NCI-H460 cells incubated for 48 hrs by sulforhodamine B assay

HCT-116 = assay: cells; type: functional; settings: Homo sapiens, time 48 hrs
Description: Growth inhibition of human HCT-116 cells incubated for 48 hrs by sulforhodamine B assay

HT-29 = assay: cells; type: functional; settings: Homo sapiens, time 48 hrs
Description: Growth inhibition of human HT-29 cells incubated for 48 hrs by sulforhodamine B assay

U-251 = assay: cells; type: functional; settings: Homo sapiens, time 48 hrs
Description: Growth inhibition of human U-251 cells incubated for 48 hrs by sulforhodamine B assay

UACC-257 = assay: cells; type: functional; settings: Homo sapiens, time 48 hrs
Description: Growth inhibition of human UACC-257 cells incubated for 48 hrs by sulforhodamine B assay

IGROV-1 = assay: cells; type: functional; settings: Homo sapiens, time 48 hrs
Description: Growth inhibition of human IGROV-1 cells incubated for 48 hrs by sulforhodamine B assay

OVCAR-4 = assay: cells; type: functional; settings: Homo sapiens, time 48 hrs
Description: Growth inhibition of human OVCAR-4 cells incubated for 48 hrs by sulforhodamine B assay

OVCAR-8 = assay: cells; type: functional; settings: Homo sapiens, time 48 hrs
Description: Growth inhibition of human OVCAR-8 cells incubated for 48 hrs by sulforhodamine B assay

A498 = assay: cells; type: functional; settings: Homo sapiens, time 48 hrs
Description: Growth inhibition of human A498 cells incubated for 48 hrs by sulforhodamine B assay

TK-10 = assay: cells; type: functional; settings: Homo sapiens, time 48 hrs
Description: Growth inhibition of human TK-10 cells incubated for 48 hrs by sulforhodamine B assay

MCF7 = assay: cells; type: functional; settings: Homo sapiens, time 48 hrs
Description: Growth inhibition of human MCF7 cells incubated for 48 hrs by sulforhodamine B assay

MDA-MB-468 = assay: cells; type: functional; settings: Homo sapiens, time 48 hrs
Description: Growth inhibition of human MDA-MB-468 cells incubated for 48 hrs by sulforhodamine B assay

[1] = Cytotoxicity against human HFF-1 cells assessed as cell growth inhibition by MTT assay; type: cell-based
[2] = tested on: Tyrosine-protein kinase ABL1 (Homo sapiens), P00519 [T315I]; assay: Inhibition of recombinant N-terminal His6-tagged human ABL T315I mutant (27 to end residues) expressed in baculovirus infected Sf21 insect cells assessed as residual activity at 10 uM relative to control
[3] = target: Cytoplasmic tyrosine-protein kinase BMX (Homo sapiens) (UniProt P51813); assay: Inhibition of N-terminal full length His6-tagged human recombinant BMX expressed in Sf21 cells assessed as residual activity at 10 uM relative to control
[4] = target: Tyrosine-protein kinase BTK (Homo sapiens) (UniProt Q06187); assay: Inhibition of recombinant full length N-terminal His6-tagged human BTK expressed in baculovirus infected Sf21 cells assessed as residual activity at 10 uM relative to control
[5] = tested on: Serine/threonine-protein kinase B-raf (Homo sapiens), P15056 [V600E]; assay: Inhibition of recombinant N-terminal GST-tagged human BRAF V599E mutant (417 to 766 residues) expressed in Sf9 cells assessed as residual activity at 10 uM relative to control
[6] = target: Calcium/calmodulin-dependent protein kinase type II subunit beta (Homo sapiens) (UniProt Q13554); assay: Inhibition of CaMK2beta (unknown origin) at 10 uM relative to control
Chain of Calcium/calmodulin-dependent protein kinase type II subunit beta (Homo sapiens) (Q13554 whole entry): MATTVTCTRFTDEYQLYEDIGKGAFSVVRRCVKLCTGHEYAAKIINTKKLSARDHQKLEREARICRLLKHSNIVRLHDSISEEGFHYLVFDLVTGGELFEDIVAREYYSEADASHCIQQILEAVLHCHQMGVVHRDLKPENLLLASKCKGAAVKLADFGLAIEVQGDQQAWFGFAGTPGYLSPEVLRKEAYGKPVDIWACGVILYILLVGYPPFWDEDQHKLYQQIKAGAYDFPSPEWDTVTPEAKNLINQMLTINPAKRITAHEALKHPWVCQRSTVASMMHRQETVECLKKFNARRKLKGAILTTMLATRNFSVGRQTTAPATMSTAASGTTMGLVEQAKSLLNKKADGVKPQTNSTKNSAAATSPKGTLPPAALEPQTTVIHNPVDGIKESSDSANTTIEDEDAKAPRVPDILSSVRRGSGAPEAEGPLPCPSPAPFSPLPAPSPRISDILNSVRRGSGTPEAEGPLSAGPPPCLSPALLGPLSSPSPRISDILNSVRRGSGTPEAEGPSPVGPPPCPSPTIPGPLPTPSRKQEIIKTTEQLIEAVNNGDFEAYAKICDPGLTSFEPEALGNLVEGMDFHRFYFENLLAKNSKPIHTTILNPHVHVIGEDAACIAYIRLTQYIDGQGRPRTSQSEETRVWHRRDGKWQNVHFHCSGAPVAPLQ

[7] = target: Ephrin type-B receptor 2 (Homo sapiens) (UniProt P29323); assay: Inhibition of N-terminal His6-tagged human EphB2 (560 to end residues) expressed in baculovirus-infected Sf21 cells assessed as residual activity at 10 uM relative to control
[8] = target: Ephrin type-B receptor 4 (Homo sapiens) (UniProt P54760); assay: Inhibition of human EphB4 at 10 uM relative to control
[9] = target: Fibroblast growth factor receptor 3 (Homo sapiens) (UniProt P22607); assay: Inhibition of N-terminal His6-tagged human FGFR3 (447 to 761 residues) expressed in Sf21 cells assessed as residual activity at 10 uM relative to control
Chain of Fibroblast growth factor receptor 3 (Homo sapiens) (P22607 23-806 limits assumed): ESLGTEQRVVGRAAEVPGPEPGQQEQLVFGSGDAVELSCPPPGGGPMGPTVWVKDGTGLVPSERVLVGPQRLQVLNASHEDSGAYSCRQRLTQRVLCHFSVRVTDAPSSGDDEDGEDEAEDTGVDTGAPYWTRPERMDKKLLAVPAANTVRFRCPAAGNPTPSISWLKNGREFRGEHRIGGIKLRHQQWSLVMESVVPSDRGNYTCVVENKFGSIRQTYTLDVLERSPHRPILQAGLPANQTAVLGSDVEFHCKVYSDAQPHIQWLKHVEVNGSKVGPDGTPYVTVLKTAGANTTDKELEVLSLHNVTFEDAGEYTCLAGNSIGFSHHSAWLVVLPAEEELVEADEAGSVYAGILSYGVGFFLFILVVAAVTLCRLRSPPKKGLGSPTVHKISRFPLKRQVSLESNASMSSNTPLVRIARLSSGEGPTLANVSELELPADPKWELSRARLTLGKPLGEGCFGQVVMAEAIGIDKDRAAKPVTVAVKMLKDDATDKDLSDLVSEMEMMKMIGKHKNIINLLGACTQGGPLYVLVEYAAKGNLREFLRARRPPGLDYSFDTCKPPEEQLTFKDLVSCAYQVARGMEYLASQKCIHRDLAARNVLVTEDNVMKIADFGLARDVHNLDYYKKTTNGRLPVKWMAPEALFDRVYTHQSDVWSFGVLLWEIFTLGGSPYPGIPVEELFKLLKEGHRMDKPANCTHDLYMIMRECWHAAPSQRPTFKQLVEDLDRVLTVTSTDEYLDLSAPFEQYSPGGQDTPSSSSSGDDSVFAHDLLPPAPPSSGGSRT

[10] = target: Macrophage colony-stimulating factor 1 receptor (Homo sapiens) (UniProt P07333); assay: Inhibition of recombinant N-terminal His6-tagged human FMS (538 to end residues) expressed in baculovirus infected Sf21 insect cells assessed as residual activity at 10 uM relative to control
[11] = target: Inhibitor of nuclear factor kappa-B kinase subunit alpha (Homo sapiens) (UniProt O15111); assay: Inhibition of human IKKalpha at 10 uM relative to control
Chain of Inhibitor of nuclear factor kappa-B kinase subunit alpha (Homo sapiens) (O15111 whole entry): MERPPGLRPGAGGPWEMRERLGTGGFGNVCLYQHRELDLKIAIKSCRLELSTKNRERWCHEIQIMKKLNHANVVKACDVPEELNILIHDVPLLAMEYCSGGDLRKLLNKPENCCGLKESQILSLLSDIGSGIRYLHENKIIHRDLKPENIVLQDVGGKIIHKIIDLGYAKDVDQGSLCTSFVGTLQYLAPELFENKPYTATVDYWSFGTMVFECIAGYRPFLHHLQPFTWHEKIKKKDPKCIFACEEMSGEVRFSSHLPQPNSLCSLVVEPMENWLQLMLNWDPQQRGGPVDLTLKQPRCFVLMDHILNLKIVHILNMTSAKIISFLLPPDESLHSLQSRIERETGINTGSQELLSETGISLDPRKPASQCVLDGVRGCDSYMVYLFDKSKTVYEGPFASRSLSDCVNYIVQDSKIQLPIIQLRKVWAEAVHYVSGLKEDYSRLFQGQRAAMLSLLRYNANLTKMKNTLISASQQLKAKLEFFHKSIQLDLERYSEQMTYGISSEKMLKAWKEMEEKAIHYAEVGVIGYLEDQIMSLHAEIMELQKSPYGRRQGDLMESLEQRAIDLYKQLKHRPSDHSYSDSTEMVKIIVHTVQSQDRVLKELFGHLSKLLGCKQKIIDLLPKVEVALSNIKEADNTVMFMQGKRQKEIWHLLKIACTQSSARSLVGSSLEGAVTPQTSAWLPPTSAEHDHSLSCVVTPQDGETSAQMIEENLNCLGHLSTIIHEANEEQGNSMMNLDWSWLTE

[12] = target: Mitogen-activated protein kinase 8 (Homo sapiens) (UniProt P45983); assay: Inhibition of N-terminal His-tagged recombinant full length human JNK1alpha1 expressed in Sf21 cells at 10 uM relative to control
[13] = target: Vascular endothelial growth factor receptor 2 (Homo sapiens) (UniProt P35968); assay: Inhibition of N-terminal His6-tagged recombinant human KDR (790 to end residues) expressed in baculovirus infected Sf21 cells at 10 uM relative to control
Chain of Vascular endothelial growth factor receptor 2 (Homo sapiens) (P35968 whole entry): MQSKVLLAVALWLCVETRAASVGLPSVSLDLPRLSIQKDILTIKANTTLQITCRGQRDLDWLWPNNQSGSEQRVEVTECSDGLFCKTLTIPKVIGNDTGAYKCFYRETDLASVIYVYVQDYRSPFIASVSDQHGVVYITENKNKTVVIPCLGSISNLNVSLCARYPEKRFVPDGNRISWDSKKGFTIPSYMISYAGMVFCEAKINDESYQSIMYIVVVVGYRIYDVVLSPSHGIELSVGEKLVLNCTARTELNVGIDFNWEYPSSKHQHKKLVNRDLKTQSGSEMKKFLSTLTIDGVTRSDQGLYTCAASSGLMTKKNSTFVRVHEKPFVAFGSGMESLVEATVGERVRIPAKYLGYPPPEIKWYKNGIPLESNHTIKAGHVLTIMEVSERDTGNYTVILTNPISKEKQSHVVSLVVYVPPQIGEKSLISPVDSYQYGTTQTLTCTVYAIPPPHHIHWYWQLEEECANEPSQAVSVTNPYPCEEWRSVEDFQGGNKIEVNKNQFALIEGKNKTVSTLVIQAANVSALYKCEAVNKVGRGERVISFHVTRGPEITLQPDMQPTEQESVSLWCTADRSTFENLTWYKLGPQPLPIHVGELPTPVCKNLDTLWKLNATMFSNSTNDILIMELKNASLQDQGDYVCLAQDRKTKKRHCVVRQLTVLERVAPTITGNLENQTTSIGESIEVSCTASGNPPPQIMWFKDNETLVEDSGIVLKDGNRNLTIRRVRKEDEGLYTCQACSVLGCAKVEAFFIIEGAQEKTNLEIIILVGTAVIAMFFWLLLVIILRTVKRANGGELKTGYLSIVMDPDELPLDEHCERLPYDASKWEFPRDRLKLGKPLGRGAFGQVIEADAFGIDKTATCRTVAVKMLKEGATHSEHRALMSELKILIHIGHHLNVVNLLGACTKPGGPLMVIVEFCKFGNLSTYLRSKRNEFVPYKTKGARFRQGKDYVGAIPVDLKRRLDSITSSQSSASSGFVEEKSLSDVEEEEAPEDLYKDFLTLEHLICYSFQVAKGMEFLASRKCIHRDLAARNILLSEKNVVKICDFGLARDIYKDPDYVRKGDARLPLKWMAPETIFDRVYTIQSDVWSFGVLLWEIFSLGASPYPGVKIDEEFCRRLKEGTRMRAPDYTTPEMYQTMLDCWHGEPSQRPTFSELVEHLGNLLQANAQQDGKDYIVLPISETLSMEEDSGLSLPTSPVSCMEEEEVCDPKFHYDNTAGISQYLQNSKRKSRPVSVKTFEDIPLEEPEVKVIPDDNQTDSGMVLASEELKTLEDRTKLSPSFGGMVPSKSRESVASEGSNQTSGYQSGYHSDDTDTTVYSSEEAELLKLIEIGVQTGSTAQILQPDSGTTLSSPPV

[14] = target: Mitogen-activated protein kinase 1 (Homo sapiens) (UniProt P28482); assay: Inhibition of recombinant full length N-terminal GST-tagged human MAPK2 expressed in Escherichia coli at 10 uM relative to control
[15] = target: MAP kinase-activated protein kinase 2 (Homo sapiens) (UniProt P49137); assay: Inhibition of human MAPKAPK2 expressed in Escherichia coli at 10 uM relative to control
Chain of MAP kinase-activated protein kinase 2 (Homo sapiens) (P49137 whole entry, looked up): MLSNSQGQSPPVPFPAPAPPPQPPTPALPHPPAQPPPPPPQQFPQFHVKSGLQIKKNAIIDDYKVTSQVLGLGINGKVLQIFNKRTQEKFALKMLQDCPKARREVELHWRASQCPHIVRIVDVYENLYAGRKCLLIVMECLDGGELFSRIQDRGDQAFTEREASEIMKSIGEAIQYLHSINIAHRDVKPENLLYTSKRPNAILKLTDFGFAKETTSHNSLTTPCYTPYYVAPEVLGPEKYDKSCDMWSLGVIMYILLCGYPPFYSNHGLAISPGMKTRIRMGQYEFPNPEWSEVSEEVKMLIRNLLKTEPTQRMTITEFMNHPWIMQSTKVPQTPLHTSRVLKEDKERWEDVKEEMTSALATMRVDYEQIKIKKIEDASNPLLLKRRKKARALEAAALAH

[16] = target: Serine/threonine-protein kinase 3 (Homo sapiens) (UniProt Q13188); assay: Inhibition of recombinant N-terminal His6-tagged human MST2 (2 to end residues) expressed in baculovirus infected Sf21 insect cells at 10 uM relative to control
[17] = target: Proto-oncogene tyrosine-protein kinase receptor Ret (Homo sapiens) (UniProt P07949); assay: Inhibition of recombinant N-terminal GST-tagged human RET (658 to end residues) expressed in baculovirus infected Sf21 insect cells at 10 uM relative to control
Chain of Proto-oncogene tyrosine-protein kinase receptor Ret (Homo sapiens) (P07949 whole entry): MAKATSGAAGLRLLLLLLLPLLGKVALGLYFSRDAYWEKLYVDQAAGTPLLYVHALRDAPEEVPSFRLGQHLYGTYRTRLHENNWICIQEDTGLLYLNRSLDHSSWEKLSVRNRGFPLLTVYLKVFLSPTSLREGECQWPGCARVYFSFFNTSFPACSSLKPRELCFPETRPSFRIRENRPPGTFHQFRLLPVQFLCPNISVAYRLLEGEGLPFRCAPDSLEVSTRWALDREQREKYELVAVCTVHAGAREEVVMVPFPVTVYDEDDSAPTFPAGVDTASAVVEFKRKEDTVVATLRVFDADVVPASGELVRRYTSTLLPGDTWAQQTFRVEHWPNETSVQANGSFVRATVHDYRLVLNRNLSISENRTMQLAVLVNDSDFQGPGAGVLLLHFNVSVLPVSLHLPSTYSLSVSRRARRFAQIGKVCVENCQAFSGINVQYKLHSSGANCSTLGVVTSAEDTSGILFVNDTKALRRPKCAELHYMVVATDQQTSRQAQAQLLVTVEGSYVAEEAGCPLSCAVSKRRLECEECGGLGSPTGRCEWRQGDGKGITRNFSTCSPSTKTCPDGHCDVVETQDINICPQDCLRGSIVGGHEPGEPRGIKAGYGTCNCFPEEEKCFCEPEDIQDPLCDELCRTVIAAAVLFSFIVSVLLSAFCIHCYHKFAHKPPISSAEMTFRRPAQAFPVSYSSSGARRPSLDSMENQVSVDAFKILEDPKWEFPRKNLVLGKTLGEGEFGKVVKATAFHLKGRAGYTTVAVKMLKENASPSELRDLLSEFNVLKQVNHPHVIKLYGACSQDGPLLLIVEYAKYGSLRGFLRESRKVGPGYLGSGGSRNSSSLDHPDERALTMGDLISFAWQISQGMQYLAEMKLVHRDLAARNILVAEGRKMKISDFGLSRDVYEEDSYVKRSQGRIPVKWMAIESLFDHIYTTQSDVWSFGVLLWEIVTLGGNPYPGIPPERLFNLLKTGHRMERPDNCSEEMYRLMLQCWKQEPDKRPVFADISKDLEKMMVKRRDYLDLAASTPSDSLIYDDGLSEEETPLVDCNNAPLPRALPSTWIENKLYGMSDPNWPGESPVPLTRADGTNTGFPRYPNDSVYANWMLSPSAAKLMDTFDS

[18] = target: Ribosomal protein S6 kinase alpha-1 (Homo sapiens) (UniProt Q15418); assay: Inhibition of recombinant full length N-terminal His6-tagged human RSK1 expressed in Sf21 insect cells at 10 uM relative to control
[19] = target: Serine/threonine-protein kinase Sgk1 (Homo sapiens) (UniProt O00141); assay: Inhibition of human SGK1 at 10 uM relative to control; settings: Sf21
[20] = tested on: PI3-kinase p110-alpha/p85-alpha (Homo sapiens), P27986+P42336 [E542K]; assay: Inhibition of p110alpha/p85alpha E542K mutant (unknown origin) at 10 uM relative to control; type: protein-complex assay
[21] = tested on: Panel leukemia (Carcinoma cell lines); assay: cells; type: functional; settings: Homo sapiens, time 48 hrs
Description: Growth inhibition of human Panel leukemia (Carcinoma cell lines) incubated for 48 hrs by sulforhodamine B assay

cells = type: functional; settings: Homo sapiens, Non-small cell lung cancer cell line; time 48 hrs
Description: Growth inhibition of human Non-small cell lung cancer cell line incubated for 48 hrs by sulforhodamine B assay

[22] = tested on: Panel colon (Carcinoma cell lines); assay: cells; type: functional; settings: Homo sapiens, time 48 hrs
Description: Growth inhibition of human Panel colon (Carcinoma cell lines) incubated for 48 hrs by sulforhodamine B assay

[23] = tested on: Panel CNS (Carcinoma cell lines); assay: cells; type: functional; settings: Homo sapiens, time 48 hrs
Description: Growth inhibition of human Panel CNS (Carcinoma cell lines) incubated for 48 hrs by sulforhodamine B assay

[24] = tested on: Panel melanoma (Carcinoma cell lines); assay: cells; type: functional; settings: Homo sapiens, time 48 hrs
Description: Growth inhibition of human Panel melanoma (Carcinoma cell lines) incubated for 48 hrs by sulforhodamine B assay

[25] = tested on: Panel renal (Carcinoma cell lines); assay: cells; type: functional; settings: Homo sapiens, time 48 hrs
Description: Growth inhibition of human Panel renal (Carcinoma cell lines) incubated for 48 hrs by sulforhodamine B assay

[26] = read-out: LC50 (the source's name)

CN1CCN(CCCOc2cccc3nc(Nc4ccc(Cl)c(C(F)(F)F)c4)ccc23)CC1
GI50 (CCRF-CEM): 1210 nM | GI50 (NCI-H460): 1720 nM | GI50 (HCT-116): 1500 nM | GI50 (HT-29): 1120 nM | GI50 (U-251): 1490 nM | GI50 (UACC-257): 1720 nM | GI50 (IGROV-1): 1850 nM | GI50 (OVCAR-4): 2730 nM | GI50 (OVCAR-8): 1920 nM | GI50 (A498): 1680 nM | GI50 (TK-10): 1800 nM | GI50 (MCF7): 1410 nM | GI50 (MDA-MB-468): 1600 nM | GI50 [1]: > 10000 nM | Activity [2]: < 60% | Activity [3]: < 60% | Activity [4]: < 60% | Activity [5]: < 60% | inhibition [6]: < 60% | Activity [7]: < 60% | inhibition [8]: < 60% | Activity [9]: < 60% | Activity [10]: < 60% | inhibition [11]: < 60% | inhibition [12]: < 60% | inhibition [13]: < 60% | inhibition [14]: < 60% | inhibition [15]: < 60% | inhibition [16]: < 60% | inhibition [17]: < 60% | inhibition [18]: < 60% | inhibition [19]: < 60% | inhibition [20]: < 60% | GI50 [21]: 1380 nM | LC50 (50% lethal concentration) [21]: 7780 nM | TGI [21]: 3480 nM | GI50 (cells): 1680 nM | LC50 (50% lethal concentration) (cells): 10100 nM | TGI (cells): 3660 nM | GI50 [22]: 1580 nM | TGI [22]: 3170 nM | CC50 [22, 26]: 6270 nM | GI50 [23]: 1650 nM | TGI [23]: 3670 nM | CC50 [23, 26]: 6980 nM | GI50 [24]: 1710 nM | LC50 [24]: 6700 nM | TGI [24]: 3380 nM | GI50 [25]: 1620 nM | LC50 (lethal concentration 50%) [25]: 6460 nM | TGI [25]: 3230 nM
